Values quoted from earlier work as cited in patent US12655468B2, “Genetic predictors of a response to treatment with CRHR1 antagonists” (HMNC Holding GmbH, priority 2015, dated 2026).

System: mice overexpressing CRH in the forebrain

For `COCC(COC)Nc1nc(C)nc2c(-c3ccc(Cl)cc3Cl)c(C)nn12` [DMP696], the “effect on increased REM sleep” value is given as “could reverse the REM enhancement”.
